Assays:
Assay type in all cases: in vivo
Oryza sativa = experiment: Paddy herbicidal activity test, phytotoxicity to transplanted rice; details: rice transplanted in 2.0 leaf stage, 30 days
Method: (§1) 1. Paddy Herbicidal Activity Test Rice paddy soil was filled into a 1/10000 are pot followed by the addition of suitable amounts of water and chemical fertilizer, kneading, seeding with Echinochloa crus-galli, Monochoria vaginalis and Scirpus juncoides and maintaining in an irrigated state at a water depth of 3 cm. Wettable powders of Target Compound (I) shown in Table 1 prepared in compliance with the preparation examples were diluted with a suitable amount of water, rice plants in the 2.0 leaf stage were transplanted during 3.5 leaf stage of Echinochloa crus-galli, and treated by dropping in chemical in the prescribed amount per 10 are using a pipette. After treating for 30 days in a glass greenhouse at an average atmospheric temperature of 30° C., the herbicidal efficacy thereof was investigated. Evaluation of herbicidal efficacy was carried out by comparing growth inhibition rate (%) with an untreated group, while evaluation of phytotoxicity was carried out by comparing growth inhibition rate (%) with the state of a complete eradication group, and were evaluated at 11 levels indicated below.

Scirpus juncoides = experiment: Paddy herbicidal activity test; details: irrigated pot, 30 days
Method: as §1

Echinochloa crus-galli = experiment: Paddy herbicidal activity test; details: irrigated pot, treated at 3.5 leaf stage of Echinochloa crus-galli, 30 days
Method: as §1

Monochoria vaginalis = experiment: Paddy herbicidal activity test; details: irrigated pot, 30 days
Method: as §1

Chenopodium album [1] = experiment: Farming soil treatment test; details: soil surface spray prior to weed growth, 30 days
Method: (§2) Field soil was filled into a 1/6000 are pot followed by seeding with Digitaria ciliaris, Chenopodium album and Amaranthus retroflexus and covering with soil. Wettable powders of compounds of formula (I) shown in Table 1 prepared in compliance with the preparation examples were diluted with water to the prescribed amount of chemical and uniformly sprayed onto each soil surface layer using 100 liters of sprayed water per 10 are prior to weed growth following seeding. After treating for 30 days in a glass greenhouse at an average atmospheric temperature of 30° C., the herbicidal efficacy thereof was investigated. Evaluation of herbicidal efficacy was carried out in the same manner as the above-mentioned Test Example 1.

Amaranthus retroflexus [2] = experiment: Farming soil treatment test; details: soil surface spray prior to weed growth, 30 days
Method: as §2

Digitaria ciliaris [3] = experiment: Farming soil treatment test; details: soil surface spray prior to weed growth, 30 days
Method: as §2

Chenopodium album [4] = experiment: Weed foliar treatment test (Test 3, 1.0 to 2.0 leaf stage); details: foliar spray at 1.0 to 2.0 leaf stage of Digitaria ciliaris, 3 weeks
Method: (§3) Soil was filled into a 1/6000 are pot followed by seeding with Digitaria ciliaris, Chenopodium album and Amaranthus retroflexus, covering with soil, and cultivating in a glass greenhouse at an average atmospheric temperature of 25° C. Wettable powders of Target Compound (I) shown in Table 1 prepared in compliance with the preparation examples were diluted with water to the prescribed amount of chemical and uniformly sprayed onto the weeds using 150 liters of sprayed water per 10 are when Digitaria ciliaris had grown to the 1.0 to 2.0 leaf stage. After treating for 3 weeks in a glass greenhouse at an average atmospheric temperature of 25° C., the herbicidal efficacy thereof was investigated. Evaluation of herbicidal efficacy was carried out in the same manner as the above-mentioned Test Example 1.

Amaranthus retroflexus [5] = experiment: as above; details: foliar spray at 1.0 to 2.0 leaf stage of Digitaria ciliaris, 3 weeks
Method: as §3

Digitaria ciliaris [6] = experiment: as above; details: foliar spray at 1.0 to 2.0 leaf stage of Digitaria ciliaris, 3 weeks
Method: as §3

Galinsoga parviflora = experiment: Weed foliar treatment test (Test 4, 4.0 to 5.0 leaf stage); details: 10 g a.i./10 a; foliar spray at 4.0 to 5.0 leaf stage of Digitaria ciliaris; 20 days
Method: (§4) Field soil was filled into a 1/4500 are pot followed by seeding with Digitaria ciliaris and Galinsoga parviflora, covering with soil and cultivating in a glass greenhouse at an average atmospheric temperature of 25° C.
(§5) Wettable powders of Target Compound (I) shown in Table 1 prepared in compliance with the preparation examples were diluted with water to the prescribed amount of chemical and uniformly sprayed onto the weeds using 100 liters of sprayed water per 10 are when Digitaria ciliaris had grown to the 4.0 to 5.0 leaf stage (plant height: 10 cm to 15 cm).
(§6) After treating for 20 days in a glass greenhouse at an average atmospheric temperature of 25° C., the herbicidal efficacy thereof was investigated.
(§7) Evaluation of herbicidal efficacy was carried out in the same manner as the above-mentioned Test Example 1.

Digitaria ciliaris [7] = experiment: as above; details: 10 g a.i./10 a; foliar spray at 4.0 to 5.0 leaf stage of Digitaria ciliaris (plant height 10 cm to 15 cm); 20 days
Method: as §4, §5, §6, §7

SMILES: N#Cc1cnn(-c2nn3c(c2Cl)CCCC3)c1/C=C/c1ccccn1 [Compound 3.43, reference compound]
- phytotoxicity, Oryza sativa (Oryza sativa; 1 g a.i./10 a): 1 (10% to less than 20%)
- phytotoxicity, Oryza sativa (Oryza sativa; 5 g a.i./10 a): 2 (20% to less than 30%)
- herbicidal efficacy, Scirpus juncoides (Scirpus juncoides; 1 g a.i./10 a): 0 (0% to less than 10% (growth inhibition rate))
- herbicidal efficacy, Scirpus juncoides (Scirpus juncoides; 5 g a.i./10 a): 1 (10% to less than 20%)
- herbicidal efficacy, Echinochloa crus-galli (Echinochloa crus-galli; 1 g a.i./10 a): 2 (20% to less than 30%)
- herbicidal efficacy, Echinochloa crus-galli (Echinochloa crus-galli; 5 g a.i./10 a): 3 (30% to less than 40%)
- herbicidal efficacy, Monochoria vaginalis (Monochoria vaginalis; 1 g a.i./10 a): 3 (30% to less than 40%)
- herbicidal efficacy, Monochoria vaginalis (Monochoria vaginalis; 5 g a.i./10 a): 3 (30% to less than 40%)
- herbicidal efficacy, Chenopodium album (Chenopodium album [1]; 5 g a.i./10 a): 2 (20% to less than 30%)
- herbicidal efficacy, Chenopodium album (Chenopodium album [1]; 10 g a.i./10 a): 3 (30% to less than 40%)
- herbicidal efficacy, Amaranthus retroflexus (Amaranthus retroflexus [2]; 5 g a.i./10 a): 2 (20% to less than 30%)
- herbicidal efficacy, Amaranthus retroflexus (Amaranthus retroflexus [2]; 10 g a.i./10 a): 2 (20% to less than 30%)
- herbicidal efficacy, Digitaria ciliaris (Digitaria ciliaris [3]; 5 g a.i./10 a): 1 (10% to less than 20%)
- herbicidal efficacy, Digitaria ciliaris (Digitaria ciliaris [3]; 10 g a.i./10 a): 3 (30% to less than 40%)
- herbicidal efficacy, Chenopodium album (Chenopodium album [4]; 5 g a.i./10 a): 3 (30% to less than 40%)
- herbicidal efficacy, Chenopodium album (Chenopodium album [4]; 10 g a.i./10 a): 4 (40% to less than 50%)
- herbicidal efficacy, Amaranthus retroflexus (Amaranthus retroflexus [5]; 5 g a.i./10 a): 0 (0% to less than 10% (growth inhibition rate))
- herbicidal efficacy, Amaranthus retroflexus (Amaranthus retroflexus [5]; 10 g a.i./10 a): 2 (20% to less than 30%)
- herbicidal efficacy, Digitaria ciliaris (Digitaria ciliaris [6]; 5 g a.i./10 a): 1 (10% to less than 20%)
- herbicidal efficacy, Digitaria ciliaris (Digitaria ciliaris [6]; 10 g a.i./10 a): 3 (30% to less than 40%)
- herbicidal efficacy, Galinsoga parviflora (Galinsoga parviflora): 3 (30% to less than 40%)
- herbicidal efficacy, Digitaria ciliaris (Digitaria ciliaris [7]): 1 (10% to less than 20%)

SMILES: N#Cc1cnn(-c2nn3c(c2Cl)CCCC3)c1N=Cc1ccncc1 [Compound 23]
- phytotoxicity, Oryza sativa (Oryza sativa; 1 g a.i./10 a): 0 (0% to less than 10% (growth inhibition rate))
- phytotoxicity, Oryza sativa (Oryza sativa; 5 g a.i./10 a): 1 (10% to less than 20%)
- herbicidal efficacy, Scirpus juncoides (Scirpus juncoides; 1 g a.i./10 a): 10 (100%)
- herbicidal efficacy, Scirpus juncoides (Scirpus juncoides; 5 g a.i./10 a): 10 (100%)
- herbicidal efficacy, Echinochloa crus-galli (Echinochloa crus-galli; 1 g a.i./10 a): 10 (100%)
- herbicidal efficacy, Echinochloa crus-galli (Echinochloa crus-galli; 5 g a.i./10 a): 10 (100%)
- herbicidal efficacy, Monochoria vaginalis (Monochoria vaginalis; 1 g a.i./10 a): 10 (100%)
- herbicidal efficacy, Monochoria vaginalis (Monochoria vaginalis; 5 g a.i./10 a): 10 (100%)
- herbicidal efficacy, Chenopodium album (Chenopodium album [1]; 5 g a.i./10 a): 10 (100%)
- herbicidal efficacy, Chenopodium album (Chenopodium album [1]; 10 g a.i./10 a): 10 (100%)
- herbicidal efficacy, Amaranthus retroflexus (Amaranthus retroflexus [2]; 5 g a.i./10 a): 9 (90% to less than 100%)
- herbicidal efficacy, Amaranthus retroflexus (Amaranthus retroflexus [2]; 10 g a.i./10 a): 10 (100%)
- herbicidal efficacy, Digitaria ciliaris (Digitaria ciliaris [3]; 5 g a.i./10 a): 9 (90% to less than 100%)
- herbicidal efficacy, Digitaria ciliaris (Digitaria ciliaris [3]; 10 g a.i./10 a): 10 (100%)
- herbicidal efficacy, Chenopodium album (Chenopodium album [4]; 5 g a.i./10 a): 10 (100%)
- herbicidal efficacy, Chenopodium album (Chenopodium album [4]; 10 g a.i./10 a): 10 (100%)
- herbicidal efficacy, Amaranthus retroflexus (Amaranthus retroflexus [5]; 5 g a.i./10 a): 9 (90% to less than 100%)
- herbicidal efficacy, Amaranthus retroflexus (Amaranthus retroflexus [5]; 10 g a.i./10 a): 10 (100%)
- herbicidal efficacy, Digitaria ciliaris (Digitaria ciliaris [6]; 5 g a.i./10 a): 9 (90% to less than 100%)
- herbicidal efficacy, Digitaria ciliaris (Digitaria ciliaris [6]; 10 g a.i./10 a): 10 (100%)
- herbicidal efficacy, Galinsoga parviflora (Galinsoga parviflora): 10 (100%)
- herbicidal efficacy, Digitaria ciliaris (Digitaria ciliaris [7]): 9 (90% to less than 100%)

SMILES: COC=Nc1c(C#N)cnn1-c1nn2c(c1Cl)CCCC2 [Compound 33]
- phytotoxicity, Oryza sativa (Oryza sativa; 1 g a.i./10 a): 0 (0% to less than 10% (growth inhibition rate))
- phytotoxicity, Oryza sativa (Oryza sativa; 5 g a.i./10 a): 1 (10% to less than 20%)
- herbicidal efficacy, Scirpus juncoides (Scirpus juncoides; 1 g a.i./10 a): 9 (90% to less than 100%)
- herbicidal efficacy, Scirpus juncoides (Scirpus juncoides; 5 g a.i./10 a): 9 (90% to less than 100%)
- herbicidal efficacy, Echinochloa crus-galli (Echinochloa crus-galli; 1 g a.i./10 a): 9 (90% to less than 100%)
- herbicidal efficacy, Echinochloa crus-galli (Echinochloa crus-galli; 5 g a.i./10 a): 9 (90% to less than 100%)
- herbicidal efficacy, Monochoria vaginalis (Monochoria vaginalis; 1 g a.i./10 a): 9 (90% to less than 100%)
- herbicidal efficacy, Monochoria vaginalis (Monochoria vaginalis; 5 g a.i./10 a): 10 (100%)
- herbicidal efficacy, Chenopodium album (Chenopodium album [1]; 5 g a.i./10 a): 9 (90% to less than 100%)
- herbicidal efficacy, Chenopodium album (Chenopodium album [1]; 10 g a.i./10 a): 9 (90% to less than 100%)
- herbicidal efficacy, Amaranthus retroflexus (Amaranthus retroflexus [2]; 5 g a.i./10 a): 9 (90% to less than 100%)
- herbicidal efficacy, Amaranthus retroflexus (Amaranthus retroflexus [2]; 10 g a.i./10 a): 9 (90% to less than 100%)
- herbicidal efficacy, Digitaria ciliaris (Digitaria ciliaris [3]; 5 g a.i./10 a): 9 (90% to less than 100%)
- herbicidal efficacy, Digitaria ciliaris (Digitaria ciliaris [3]; 10 g a.i./10 a): 9 (90% to less than 100%)
- herbicidal efficacy, Chenopodium album (Chenopodium album [4]; 5 g a.i./10 a): 10 (100%)
- herbicidal efficacy, Chenopodium album (Chenopodium album [4]; 10 g a.i./10 a): 10 (100%)
- herbicidal efficacy, Amaranthus retroflexus (Amaranthus retroflexus [5]; 5 g a.i./10 a): 9 (90% to less than 100%)
- herbicidal efficacy, Amaranthus retroflexus (Amaranthus retroflexus [5]; 10 g a.i./10 a): 9 (90% to less than 100%)
- herbicidal efficacy, Digitaria ciliaris (Digitaria ciliaris [6]; 5 g a.i./10 a): 9 (90% to less than 100%)
- herbicidal efficacy, Digitaria ciliaris (Digitaria ciliaris [6]; 10 g a.i./10 a): 9 (90% to less than 100%)
- herbicidal efficacy, Galinsoga parviflora (Galinsoga parviflora): 10 (100%)
- herbicidal efficacy, Digitaria ciliaris (Digitaria ciliaris [7]): 9 (90% to less than 100%)

SMILES: N#Cc1cnn(-c2nn3c(c2Cl)CCCC3)c1/C=C/c1ncccn1 [Compound 3.39, reference compound]
- phytotoxicity, Oryza sativa (Oryza sativa; 1 g a.i./10 a): 0 (0% to less than 10% (growth inhibition rate))
- phytotoxicity, Oryza sativa (Oryza sativa; 5 g a.i./10 a): 1 (10% to less than 20%)
- herbicidal efficacy, Scirpus juncoides (Scirpus juncoides; 1 g a.i./10 a): 0 (0% to less than 10% (growth inhibition rate))
- herbicidal efficacy, Scirpus juncoides (Scirpus juncoides; 5 g a.i./10 a): 0 (0% to less than 10% (growth inhibition rate))
- herbicidal efficacy, Echinochloa crus-galli (Echinochloa crus-galli; 1 g a.i./10 a): 1 (10% to less than 20%)
- herbicidal efficacy, Echinochloa crus-galli (Echinochloa crus-galli; 5 g a.i./10 a): 2 (20% to less than 30%)
- herbicidal efficacy, Monochoria vaginalis (Monochoria vaginalis; 1 g a.i./10 a): 2 (20% to less than 30%)
- herbicidal efficacy, Monochoria vaginalis (Monochoria vaginalis; 5 g a.i./10 a): 3 (30% to less than 40%)
- herbicidal efficacy, Chenopodium album (Chenopodium album [1]; 5 g a.i./10 a): 4 (40% to less than 50%)
- herbicidal efficacy, Chenopodium album (Chenopodium album [1]; 10 g a.i./10 a): 4 (40% to less than 50%)
- herbicidal efficacy, Amaranthus retroflexus (Amaranthus retroflexus [2]; 5 g a.i./10 a): 2 (20% to less than 30%)
- herbicidal efficacy, Amaranthus retroflexus (Amaranthus retroflexus [2]; 10 g a.i./10 a): 3 (30% to less than 40%)
- herbicidal efficacy, Digitaria ciliaris (Digitaria ciliaris [3]; 5 g a.i./10 a): 3 (30% to less than 40%)
- herbicidal efficacy, Digitaria ciliaris (Digitaria ciliaris [3]; 10 g a.i./10 a): 4 (40% to less than 50%)
- herbicidal efficacy, Chenopodium album (Chenopodium album [4]; 5 g a.i./10 a): 4 (40% to less than 50%)
- herbicidal efficacy, Chenopodium album (Chenopodium album [4]; 10 g a.i./10 a): 5 (50% to less than 60%)
- herbicidal efficacy, Amaranthus retroflexus (Amaranthus retroflexus [5]; 5 g a.i./10 a): 1 (10% to less than 20%)
- herbicidal efficacy, Amaranthus retroflexus (Amaranthus retroflexus [5]; 10 g a.i./10 a): 2 (20% to less than 30%)
- herbicidal efficacy, Digitaria ciliaris (Digitaria ciliaris [6]; 5 g a.i./10 a): 2 (20% to less than 30%)
- herbicidal efficacy, Digitaria ciliaris (Digitaria ciliaris [6]; 10 g a.i./10 a): 3 (30% to less than 40%)
- herbicidal efficacy, Galinsoga parviflora (Galinsoga parviflora): 3 (30% to less than 40%)
- herbicidal efficacy, Digitaria ciliaris (Digitaria ciliaris [7]): 2 (20% to less than 30%)

Reference: patent US10165777B2, “Substituted pyrazolylpyrazole derivative and use of same as herbicide” (KYOYU AGRI CO., LTD., priority 2015, dated 2019)
